Some test systems named below: A498 renal; DU-145 prostate; HT29 colon; M14 melanoma; MDA-MB-231 breast; MDA-MB-435; NCI-H226 lung; T-47D breast; UACC-257 melanoma; UO-31 renal.
What all share (assay): NCI tumour cell line growth inhibition, 48 h

This note sets out measurements from PubChem BioAssay (NCI).

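Compound exposure: 48 hours, 5 concentrations, 96-well plates. GI50: concentration for 50% inhibition of growth. At the TGI there is no net growth.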 Some results are limits rather than exact numbers.

`CNC(=O)c1cn(C[C@H](F)CCc2ccc(NC(=O)Cc3cc(OC4CC(F)(F)C4)cc(C)n3)nn2)nn1`: the GI50 is 0.0854 µM with A498 renal; greater than 100 µM in the assay with DU-145 prostate; greater than 100 µM in the assay on HT29 colon; greater than 100 µM in the assay on M14 melanoma; greater than 100 µM with MDA-MB-231 breast; greater than 100 µM in the assay with MDA-MB-435. The GI50 in the assay on T-47D breast, in the assay on UACC-257 melanoma and in the assay with UO-31 renal was greater than 100 µM each time. The TGI in the assay on A498 renal was 1.27 µM; in the assay with DU-145 prostate it was greater than 100 µM; in the assay on HT29 colon, greater than 100 µM; in the assay with M14 melanoma, greater than 100 µM; with MDA-MB-231 breast it was greater than 100 µM; in the assay on MDA-MB-435, greater than 100 µM. In addition, the TGI in the assay with NCI-H226 lung, in the assay on T-47D breast, in the assay on UACC-257 melanoma and in the assay on UO-31 renal was greater than 100 µM each time.

Consider `CN1CCN(Cc2ccc(NC(=O)c3ccc(C(C)(C)C)c(C#Cc4cnc5cccnn45)c3)cc2C(F)(F)F)CC1`, for which the GI50 was 7.18 µM with A498 renal; 1.89 µM with DU-145 prostate; 1.68 µM in the assay with HT29 colon; 1.8 µM in the assay on M14 melanoma; 1.97 µM with MDA-MB-231 breast; 1.5 µM in the assay on MDA-MB-435. In addition, the GI50 with NCI-H226 lung was 4.63 µM; with T-47D breast, 2.02 µM; in the assay on UACC-257 melanoma it was 1.89 µM; in the assay with UO-31 renal, 1.93 µM. Besides, the TGI is 23.4 µM in the assay on A498 renal; 3.39 µM with DU-145 prostate; 3.4 µM in the assay with HT29 colon; 3.44 µM in the assay with M14 melanoma; 4.14 µM in the assay on MDA-MB-231 breast; 2.95 µM in the assay with MDA-MB-435. The TGI with NCI-H226 lung stood at 20.1 µM; in the assay on T-47D breast, 5.41 µM; in the assay with UACC-257 melanoma it was 3.68 µM; with UO-31 renal it was 3.9 µM.

In the case of `CCCCCC(C(O)C#N)C(O)(C(F)(F)F)C(F)(F)F` (configuration not stated), the TGI in the assay on DU-145 prostate, in the assay on HT29 colon, in the assay on M14 melanoma, in the assay with MDA-MB-231 breast, in the assay with MDA-MB-435 and in the assay on T-47D breast was greater than 10 µM throughout. This compound also showed a TGI in the assay on UACC-257 melanoma greater than 10 µM.

In the case of `Cc1c(-c2nc(N)nc(C3CC3)c2C)nc(N)nc1C1CC1`, the TGI in the assay with A498 renal, in the assay with DU-145 prostate, with HT29 colon, in the assay on M14 melanoma, in the assay on MDA-MB-231 breast and in the assay with MDA-MB-435 was greater than 100 µM each time. The TGI with NCI-H226 lung, with T-47D breast, with UACC-257 melanoma and in the assay on UO-31 renal was greater than 100 µM each time.

For the compound `O=C(N/N=C/c1ccc(Cl)cc1Cl)c1ccccc1Nc1cccc(C(F)(F)F)c1`, the GI50 in the assay with A498 renal was 14.9 µM; in the assay with DU-145 prostate, 4.08 µM; in the assay on HT29 colon it was 14.4 µM; in the assay on M14 melanoma it was 5.51 µM; in the assay on MDA-MB-231 breast, 4.79 µM; in the assay with MDA-MB-435, 22.3 µM. Further, the GI50 in the assay with NCI-H226 lung is 3.67 µM; in the assay with T-47D breast, 2.2 µM; in the assay with UACC-257 melanoma it was 4.27 µM; with UO-31 renal it was 3.14 µM. In addition, the TGI is 52.4 µM in the assay on A498 renal; 38.7 µM with DU-145 prostate; greater than 100 µM in the assay with HT29 colon; 35.3 µM with M14 melanoma; 32.2 µM with MDA-MB-231 breast; greater than 100 µM in the assay on MDA-MB-435. Further, the TGI came out at 43.5 µM in the assay on NCI-H226 lung, 6.9 µM with T-47D breast, 25.4 µM in the assay with UACC-257 melanoma and 22.1 µM in the assay with UO-31 renal.

For the compound `C=C1CC(COc2cc(Cl)nc(N)n2)C1`, the GI50 with A498 renal is 28.4 µM; in the assay with DU-145 prostate, 47.7 µM; in the assay with HT29 colon, 37 µM; in the assay on MDA-MB-231 breast it was 30.1 µM; in the assay with NCI-H226 lung it was 42.5 µM; with T-47D breast, 23.3 µM. In addition, the GI50 with UO-31 renal is 35.6 µM. Further, the TGI with A498 renal amounted to 96.8 µM.

`Cc1ccc([N+](=O)[O-])c2c(NCCCN(C)C)ccnc12`: the TGI was greater than 100 µM in the assay with A498 renal; greater than 100 µM in the assay on DU-145 prostate; greater than 90.7 µM in the assay on HT29 colon; greater than 100 µM in the assay with M14 melanoma; greater than 100 µM with MDA-MB-231 breast; 45.1 µM in the assay on MDA-MB-435. Further, the TGI was greater than 100 µM with NCI-H226 lung, greater than 100 µM in the assay with T-47D breast, greater than 91.1 µM in the assay with UACC-257 melanoma and greater than 100 µM in the assay on UO-31 renal.

Take `CS(=O)(=O)Nc1ccc(-c2ccc3c(NC(=O)C4CC4)n[nH]c3c2)cc1`: the GI50 in the assay on A498 renal was greater than 25 µM; in the assay with DU-145 prostate, greater than 23.8 µM; with HT29 colon, greater than 23.6 µM; in the assay with M14 melanoma, 24.9 µM; with MDA-MB-231 breast it was greater than 25 µM; with MDA-MB-435, greater than 25 µM. In addition, the GI50 in the assay with NCI-H226 lung is greater than 14.9 µM; in the assay with T-47D breast, greater than 13.2 µM; with UACC-257 melanoma, greater than 25 µM; in the assay with UO-31 renal, greater than 25 µM. Also, the TGI with A498 renal, in the assay on DU-145 prostate, in the assay with HT29 colon, in the assay with M14 melanoma, in the assay on MDA-MB-231 breast and in the assay with MDA-MB-435 was greater than 25 µM each time. The TGI in the assay on NCI-H226 lung, in the assay with T-47D breast, in the assay on UACC-257 melanoma and in the assay on UO-31 renal was greater than 25 µM in each case.

With `COC(=O)NC/C=C\c1nc(CC/C=C\C(=O)OC2CC3CC(=O)O[C@@H](/C=C/CC(C)C)C[C@@H]4CCC(C)C(C[C@@H](OC)CC(C2)O3)O4)co1` (some centres not stated), the GI50 was 4.59 µM in the assay with DU-145 prostate; 7.63 µM in the assay on HT29 colon; 7.36 µM with M14 melanoma; 4.43 µM in the assay on MDA-MB-231 breast; less than 0.01 µM in the assay on MDA-MB-435; 24.4 µM in the assay with NCI-H226 lung. The GI50 is 45.7 µM with T-47D breast, greater than 100 µM with UACC-257 melanoma and 2.46 µM with UO-31 renal. For the same compound, the TGI with DU-145 prostate was greater than 100 µM; in the assay on HT29 colon, greater than 100 µM; in the assay on M14 melanoma, greater than 100 µM; in the assay with MDA-MB-231 breast, 47.6 µM; in the assay on MDA-MB-435 it was 50.1 µM; in the assay with NCI-H226 lung, greater than 100 µM. Moreover, the figures for the TGI in the assay on T-47D breast, in the assay with UACC-257 melanoma and in the assay on UO-31 renal were greater than 100 µM, greater than 100 µM and 74.7 µM, respectively.
